According to ChEMBL document CHEMBL4837267, “Development of Potent 3-Br-isoxazoline-Based Antimalarial and Antileishmanial Compounds” (ACS Med Chem Lett, 2021):
Calls of active or inactive are those of the source. No cut-off for these calls is given here.

How the values were obtained:
Leishmania tropica [1] = assay: Antileishmanial activity against Leishmania tropica (MHOM/SY/2012/ISS3130) promastigotes assessed as reduction in parasite viability measured after 72 hrs by MTT assay; assay type: functional, organism-based; conditions: MHOM/SY/2012/ISS3130, 72 h
Leishmania infantum [2] = assay: Antileishmanial activity against Leishmania infantum (MHOM/TN/80/IPTI) promastigotes assessed as reduction in parasite viability measured after 72 hrs by MTT assay; assay type: functional, organism-based; conditions: MHOM/TN/80/IPT
Plasmodium falciparum [3] = assay: Antimalarial activity against chloroquine sensitive Plasmodium falciparum D10 infected in human red blood cells assessed as reduction in parasite growth measured after 72 hrs by parasite lactate dehydrogenase assay; assay type: functional, organism-based; conditions: D10, 72 h
Plasmodium falciparum [4] = assay: Antimalarial activity against chloroquine resistant Plasmodium falciparum W2 infected in human red blood cells assessed as reduction in parasite growth measured after 72 hrs by parasite lactate dehydrogenase assay; assay type: functional, organism-based; conditions: W2, 72 h
Leishmania tropica [5] = assay: Antileishmanial activity against Leishmania tropica (MHOM/SY/2012/ISS3130) promastigotes assessed as reduction in parasite viability at 60 uM measured after 72 hrs by MTT assay; assay type: functional, organism-based
Leishmania infantum [6] = assay: Antileishmanial activity against Leishmania infantum (MHOM/TN/80/IPTI) promastigotes assessed as reduction in parasite viability at 60 uM measured after 72 hrs by MTT assay; assay type: functional, organism-based; conditions: MHOM/TN/80/IPT
BMDM = assay: Cytotoxicity against mouse BMDM cells assessed as reduction in cell viability incubated for 72 hrs by MTT assay; assay type: cell-based
[7] = Selectivity index, ratio of IC50 for antileishmanial activity against Leishmania infantum (MHOM/TN/80/IPTI) promastigotes to IC50 for Cytotoxicity against mouse BMDM cells; assay type: toxicity, cell-based; conditions: read-out: Selectivity Index
[8] = Selectivity index, ratio of IC50 for antimalarial activity against chloroquine resistance Plasmodium falciparum W2 infected in human red blood cells to IC50 for Cytotoxicity against mouse BMDM cells; assay type: toxicity, cell-based; conditions: read-out: Selectivity Index
[9] = Selectivity index, ratio of IC50 for antileishmanial activity against Leishmania tropica (MHOM/SY/2012/ISS3130) promastigotes to IC50 for Cytotoxicity against mouse BMDM cells; assay type: toxicity, cell-based; conditions: read-out: Selectivity Index
[10] = Selectivity index, ratio of IC50 for antimalarial activity against chloroquine sensitive Plasmodium falciparum D10 infected in human red blood cells to IC50 for cytotoxicity against mouse BMDM cells; assay type: toxicity, cell-based; conditions: read-out: Selectivity Index
Plasmodium falciparum [11] = assay: Antimalarial activity against chloroquine resistant Plasmodium falciparum W2 infected in human red blood cells assessed as reduction in parasite growth at 60 uM measured after 72 hrs by parasite lactate dehydrogenase assay; assay type: functional, organism-based
Plasmodium falciparum [12] = assay: Antimalarial activity against chloroquine sensitive Plasmodium falciparum D10 infected in human red blood cells assessed as reduction in parasite growth at 60 uM measured after 72 hrs by parasite lactate dehydrogenase assay; assay type: functional, organism-based
Plasmodium falciparum [13] = assay: Antimalarial activity against […] late stage (IV-V) Plasmodium falciparum 3D7 gametocytes expressing CBG99 luciferase infected in human red blood cells assessed as reduction in gametocyte viability measured after 72 hrs by luminescence based assay; assay type: functional, organism-based; conditions: 3D7, 72 h

BrC1=NOC(c2nc(-c3ccccc3)no2)C1 (stereo not given)
IC50 (Leishmania tropica [1]): 43 µM
IC50 (Leishmania infantum [2]): 17.3 µM
IC50 (Plasmodium falciparum [3]): 52.7 µM
IC50 (Plasmodium falciparum [4]): 64.8 µM

C[C@@H]1[C@H](O)[C@@H](C)/C=C/C=C/C=C/C=C/C=C/C=C/C=C/[C@H](O[C@@H]2O[C@H](C)[C@@H](O)[C@H](N)[C@@H]2O)C[C@@H]2O[C@](O)(C[C@@H](O)C[C@@H](O)[C@H](O)CC[C@@H](O)C[C@@H](O)CC(=O)O[C@H]1C)C[C@H](O)[C@H]2C(=O)O [AMPHOTERICIN B]
IC50 (Leishmania infantum [2]): 0.11 µM

BrC1=NOC(c2nnc(-c3ccccc3)o2)C1 (stereo not given)
inhibition (Leishmania tropica [5]): inactive
IC50 (Plasmodium falciparum [3]): 16.7 µM
IC50 (Plasmodium falciparum [4]): 15.1 µM
inhibition (Leishmania infantum [6]): inactive

O=C(O)c1ccc(-c2noc(C3CC(Br)=NO3)n2)cc1 (stereo not given)
inhibition (Leishmania tropica [5]): inactive
IC50 (Plasmodium falciparum [3]): 36.9 µM
IC50 (Plasmodium falciparum [4]): 45.3 µM
inhibition (Leishmania infantum [6]): inactive

BrC1=NOC(c2nc(-c3ccc4c(c3)OCCO4)no2)C1 (stereo not given)
IC50 (Leishmania tropica [1]): 39.4 µM
IC50 (Leishmania infantum [2]): 25.6 µM
IC50 (Plasmodium falciparum [3]): 29.8 µM
IC50 (Plasmodium falciparum [4]): 32.7 µM

BrC1=NOC(c2nc(-c3ccsc3)no2)C1 (stereo not given)
IC50 (Leishmania tropica [1]): 32.6 µM
IC50 (Leishmania infantum [2]): 27.3 µM
IC50 (Plasmodium falciparum [3]): 58.3 µM
IC50 (Plasmodium falciparum [4]): 48.1 µM

BrC1=NOC(c2nc(-c3ccccc3)n[nH]2)C1 (stereo not given)
inhibition (Leishmania tropica [5]): inactive
IC50 (Plasmodium falciparum [3]): 35.3 µM
IC50 (Plasmodium falciparum [4]): 43 µM
inhibition (Leishmania infantum [6]): inactive

CC(C)(C)c1ccc(-c2noc(C3CC(Br)=NO3)n2)cc1 (stereo not given)
IC50 (BMDM): 37.3 µM
IC50 (Leishmania tropica [1]): 0.31 µM
selectivity ratio [7]: 129
IC50 (Leishmania infantum [2]): 0.29 µM
selectivity ratio [8]: 11
IC50 (Plasmodium falciparum [3]): 3.1 µM
selectivity ratio [9]: 120
selectivity ratio [10]: 12
IC50 (Plasmodium falciparum [4]): 3.5 µM

BrC1=NOC(c2nc(-c3cccs3)no2)C1 (stereo not given)
IC50 (Leishmania tropica [1]): 24.9 µM
IC50 (Leishmania infantum [2]): 26.2 µM
IC50 (Plasmodium falciparum [3]): 52.7 µM
IC50 (Plasmodium falciparum [4]): 46 µM

Fc1ccc(-c2noc(C3CC(Br)=NO3)n2)cc1 (stereo not given)
IC50 (Leishmania tropica [1]): 10.9 µM
IC50 (Leishmania infantum [2]): 9 µM
inhibition (Plasmodium falciparum [11]): inactive
inhibition (Plasmodium falciparum [12]): inactive

Oc1ccc(-c2noc(C3CC(Br)=NO3)n2)cc1 (stereo not given)
IC50 (Leishmania tropica [1]): 25.6 µM
IC50 (Leishmania infantum [2]): 14.7 µM
IC50 (Plasmodium falciparum [3]): 39 µM
IC50 (Plasmodium falciparum [4]): 32.5 µM

BrC1=NOC(c2nc(-c3ccc4ccccc4c3)no2)C1 (stereo not given)
IC50 (Leishmania tropica [1]): 5.3 µM
IC50 (Leishmania infantum [2]): 10.5 µM
IC50 (Plasmodium falciparum [3]): 27.8 µM
IC50 (Plasmodium falciparum [4]): 27.2 µM

COc1ccc(-c2noc(C3CC(Br)=NO3)n2)cc1 (stereo not given)
IC50 (Leishmania tropica [1]): 14.7 µM
IC50 (Leishmania infantum [2]): 12 µM
IC50 (Plasmodium falciparum [3]): 34.4 µM
IC50 (Plasmodium falciparum [4]): 42.5 µM

O=C(O)c1ccc(-c2noc(C3CC(Br)=NO3)n2)s1 (stereo not given)
inhibition (Leishmania tropica [5]): inactive
IC50 (Plasmodium falciparum [3]): 45.9 µM
IC50 (Plasmodium falciparum [4]): 40.4 µM
inhibition (Leishmania infantum [6]): inactive

N[C@H](c1nc(-c2ccccc2)no1)[C@@H]1CC(Br)=NO1
inhibition (Plasmodium falciparum [11]): inactive
inhibition (Plasmodium falciparum [12]): inactive

Nc1ccc(-c2noc(C3CC(Br)=NO3)n2)cc1 (stereo not given)
IC50 (Leishmania tropica [1]): 33.8 µM
IC50 (Leishmania infantum [2]): 28.8 µM
IC50 (Plasmodium falciparum [3]): 45.7 µM
IC50 (Plasmodium falciparum [4]): 39.5 µM

FC(F)(F)c1ccc(-c2noc(C3CC(Br)=NO3)n2)cc1 (stereo not given)
IC50 (Leishmania tropica [1]): 6.9 µM
IC50 (Leishmania infantum [2]): 8.7 µM
IC50 (Plasmodium falciparum [3]): 31 µM
IC50 (Plasmodium falciparum [4]): 34 µM

BrC1=NOC(c2nc(-c3ccccc3)cs2)C1 (stereo not given)
IC50 (Leishmania tropica [1]): 33.8 µM
IC50 (Leishmania infantum [2]): 28.8 µM
IC50 (Plasmodium falciparum [3]): 45.8 µM
IC50 (Plasmodium falciparum [4]): 39.7 µM

BrC1=NOC(c2ncc(-c3ccccc3)o2)C1 (stereo not given)
IC50 (Leishmania tropica [1]): 50.7 µM
IC50 (Plasmodium falciparum [3]): 32.2 µM
IC50 (Plasmodium falciparum [4]): 39.3 µM
inhibition (Leishmania infantum [6]): inactive

BrC1=NOC(c2nnc(-c3ccccc3)s2)C1 (stereo not given)
inhibition (Leishmania tropica [5]): inactive
IC50 (Leishmania infantum [2]): 60.3 µM
IC50 (Plasmodium falciparum [3]): 22.9 µM
IC50 (Plasmodium falciparum [4]): 41.3 µM

CC(C)(C)c1ccc(-c2nnc(C3CC(Br)=NO3)o2)cc1 (stereo not given)
IC50 (Plasmodium falciparum [13]): 10.4 µM
IC50 (BMDM): 40 µM
IC50 (Leishmania tropica [1]): 7.5 µM
selectivity ratio [7]: 11
IC50 (Leishmania infantum [2]): 3.5 µM
selectivity ratio [8]: 690
IC50 (Plasmodium falciparum [3]): 0.035 µM
selectivity ratio [9]: 5
selectivity ratio [10]: 1140
IC50 (Plasmodium falciparum [4]): 0.058 µM
